Test results reported in patent publication US4205171A, “Aminomethanobenzazocines and nitromethanobenzazocines” (Sterling Drug Inc., priority 1978, dated 1980).
Counter-ions that a name gives are not always drawn. Like-named read-outs stand apart in the source and are kept apart here.

Legend:
[1] = tested on: acetylcholine-induced writhing; assay: Anti-acetylcholine writhing test (analgesia); format: in vivo, mice; conditions: for ED50: Mus musculus, 20 min, mice; for Oral:Parenteral Potency Ratio: peroral ED50 / subcutaneous ED50, anti-acetylcholine test
Experimental: In this test the ability of test compounds to prevent acetylcholine-induced writhing in mice is determined. The following is an adaptation of the method of Collier and co-workers (Brit. J. Pharmacol. Chemother., 32, 295(1968)) by Anne K. Pierson. Anti-acetylcholine Writhing Test
This response has also been called writhing. Animals are pretreated with test compounds (20 minutes for both subcutaneous and oral routes) and observed for two minutes immediately following the administration of acetylcholine. Mice not responding during the two-minute observation period are scored protected while those responding one or more times are scored not protected. Test compounds are screened at doses of 75 and 25 milligrams per kilogram subcutaneously or 150 and 50 mlligrams per kilogram orally. […] ED50 values for active compounds are estimated by probit analysis of quantal scores for 4 or more dosage levels using 15 animals per dose. Vehicle-pretreated control animals are tested concurrently with each run of 15 experimental animals.

[2] = Intravenous administration in the dog (unconsciousness, heart rate, blood pressure); format: in vivo
[3] = Irritation at the injection site; format: in vivo; conditions: rabbits
Text: A still further important difference is the comparative irritation at the injection site of pentazocine and the compound of Example 1B. The threshold irritation concentration of the latter in rabbits was 2% and of pentazocine, 0.5%.

[4] = tested on: phenazocine (agonist effect in rat tail-flick); assay: Tail-flick antagonist test against phenazocine; conditions: for ED50: Rattus norvegicus, sc, 10 min, read-out: Tail-flick Antagonist AD50
[5] = tested on: tail-flick response to thermal stimulus; assay: Tail-flick agonist test; format: in vivo; conditions: rats, subcutaneous; for Tail-flick Agonist ED50: 30 minutes after injection
Experimental: Rats normally respond to a thermal stimulus applied to the tail by flicking their tails out from under the heat source. The intensity of the stimulus utilized is one which produces control response-times (CRT) of 2-4 seconds. Experimental response-times (ERT) are determined 30 minutes after subcutaneous injections. […] Therefore, the maximum possible increase (MPI) in response-time for any given animal is 20 minus the CRT. The average % effect, or % of the maximum possible increase (%MPI) obtained after any given test compound treatment is calculated by the formula [formula] […] Exptl.

[6] = Tests for analgesia, comparison with cyclazocine and pentazocine; format: in vivo; conditions: both subcutaneously and orally
Text: The compound of Example 1B having in the free base form the structural formula [drawing 14] is the preferred species of this invention and the biological properties thereof have been carefully compared with those of pentazocine and cyclazocine.

[7] = po, peroral, read-out: Peroral ED50, anti-acetylcholine test
[8] = sc, subcutaneous, 20 minutes pretreatment, read-out: ED50, anti-acetylcholine writhing test

Compound: C[C@H]1[C@H]2Cc3ccc(N)cc3[C@]1(C)CCN2CC1CC1 (relative stereo) [Example 1B, 8-amino-3-(cyclopropylmethyl)-1,2,3,4,5,6-hexahydro-cis-6,11-dimethyl-2,6-methano-3-benzazocine dihydrochloride]
- ED50 [1, 7]: 3.2 mg/kg
- ED50 [1, 8]: 0.8 mg/kg
- Oral:Parenteral Potency Ratio [1]: 4
- Heart rate and blood pressure [2]: without compromising heart rate or blood pressure
- Salivation and tremors [2]: Salivation and tremors were observed
- Unconsciousness [2]: produced unconsciousness equivalent to a light plane of anesthesia
- Threshold irritation concentration [3]: 2%
- ED50 [4]: 2.7 mg/kg

Compound: C[C@H]1[C@H]2Cc3ccc(NCC4CC4)cc3[C@]1(C)CCN2CC1CC1 (relative stereo) [Example 2E, 3-(cyclopropylmethyl)-8-(cyclopropylmethylamino)-1,2,3,4,5,6-hexahydro-cis-6,11-dimethyl-2,6-methano-3-benzazocine hydrochloride]
- ED50 [1, 8]: 0.7 mg/kg
- ED50 [4]: 8 mg/kg

Compound: CNc1ccc2c(c1)[C@]1(C)CCN(CC3CC3)[C@H](C2)[C@@H]1C (relative stereo) [Example 3B, 3-(cyclopropylmethyl)-1,2,3,4,5,6-hexahydro-cis-6,11-dimethyl-8-(methylamino)-2,6-methano-3-benzazocine dihydrochloride ethanolate hydrate]
- ED50 [1, 8]: 0.44 mg/kg
- Tail-flick Agonist % MPI ([5]; at 120 mg./kg.): 35%
- ED50 [4]: 1.3 mg/kg

Compound: C[C@H]1[C@H]2Cc3ccc(N(C)C)cc3[C@]1(C)CCN2CC1CC1 (relative stereo) [Example 4F, 3-cyclopropylmethyl-8-dimethylamino-cis-6,11-dimethyl-1,2,3,4,5,6-hexahydro-2,6-methano-3-benzazocine dihydrochloride]
- ED50 [1, 8]: 0.79 mg/kg
- Tail-flick Agonist % MPI ([5]; at 60 mg./kg.): 43%
- Tail-flick Antagonist % Antagonism ([4]; rats, subcutaneous, against phenazocine, at 10 mg./kg.): 30%
- Tail-flick Antagonist % Antagonism ([4]; rats, subcutaneous, against phenazocine, at 80 mg./kg.): 32%

Compound: CC(C)CN1CC[C@@]2(C)c3cc(N)ccc3C[C@@H]1[C@@H]2C (relative stereo) [Example 5C, 8-amino-1,2,3,4,5,6-hexahydro-3-isobutyl-cis-6,11-dimethyl-2,6-methano-3-benzazocine dihydrochloride]
- ED50 [1, 8]: 1.5 mg/kg
- ED50 [4]: 9.4 mg/kg

Compound: CCCN1CC[C@@]2(C)c3cc(N)ccc3C[C@@H]1[C@@H]2C (relative stereo) [Example 6C, 8-amino-cis-6,11-dimethyl-1,2,3,4,5,6-hexahydro-3-propyl-2,6-methano-3-benzazocine dihydrochloride sesquihydrate]
- ED50 [1, 8]: 5.6 mg/kg
- Tail-flick Agonist ED50 [5]: Inactive at 60
- ED50 [4]: 2 mg/kg

Compound: C[C@H]1[C@H]2Cc3ccc(NCc4ccccc4)cc3[C@]1(C)CCN2CC1CC1 (relative stereo) [Example 7, 3-(cyclopropylmethyl)-1,2,3,4,5,6-hexahydro-cis-6,11-dimethyl-8-benzylamino-2,6-methano-3-benzazocine dihydrochloride]
- ED50 [1, 8]: 1.6 mg/kg
- ED50 [4]: 1 mg/kg

Compound: C=CCN1CC[C@@]2(C)c3cc(N)ccc3C[C@@H]1[C@@H]2C (relative stereo) [Example 8C, 8-amino-1,2,3,4,5,6-hexahydro-cis-6,11-dimethyl-3-(2-propenyl)-2,6-methano-3-benzazocine dihydrochloride]
- ED50 [1, 8]: 2.5 mg/kg
- ED50 [4]: 1.5 mg/kg

Compound: CCNc1ccc2c(c1)[C@]1(C)CCN(CC3CC3)[C@H](C2)[C@@H]1C (relative stereo) [Example 9B, 3-(cyclopropylmethyl)-8-(ethylamino)-1,2,3,4,5,6-hexahydro-cis-6,11-dimethyl-2,6-methano-3-benzazocine]
- ED50 [1, 8]: 1.3 mg/kg
- Tail-flick Agonist % MPI ([5]; at 60 mg./kg.): 25%
- Tail-flick Agonist % MPI ([5]; at 120 mg./kg., different sample): 21%
- ED50 [4]: 10 mg/kg
- Tail-flick Antagonist % Antagonism ([4]; rats, subcutaneous, against phenazocine, at 80 mg./kg., different sample): 19%

Compound: CCCNc1ccc2c(c1)[C@]1(C)CCN(CC3CC3)[C@H](C2)[C@@H]1C (relative stereo) [Example 10B, 3-(cyclopropylmethyl)-1,2,3,4,5,6-hexahydro-cis-6,11-dimethyl-8-(propylamino)-2,6-methano-3-benzazocine]
- ED50 [1, 8]: 1.2 mg/kg
- Tail-flick Antagonist % Antagonism ([4]; rats, subcutaneous, against phenazocine, at 5 mg./kg., different sample): 32%
- Tail-flick Antagonist % Antagonism ([4]; rats, subcutaneous, against phenazocine, at 40 mg./kg.): 31%

Compound: CCCCNc1ccc2c(c1)[C@]1(C)CCN(CC3CC3)[C@H](C2)[C@@H]1C (relative stereo) [Example 11B, 8-(butylamino)-3-(cyclopropylmethyl)-1,2,3,4,5,6-hexahydro-cis-6,11-dimethyl-2,6-methano-3-benzazocine]
- ED50 [1, 8]: 1 mg/kg

Compound: CC[C@H]1[C@H]2Cc3ccc(N)cc3[C@]1(CC)CCN2CC1CC1 (relative stereo) [Example 12H, 8-amino-3-(cyclopropylmethyl)-cis-6,11-diethyl-1,2,3,4,5,6-hexahydro-2,6-methano-3-benzazocine dihydrochloride]
- ED50 [1, 8]: 1.3 mg/kg
- ED50 [4]: 3.8 mg/kg

Compound: C[C@H]1[C@H]2Cc3ccc(N)cc3[C@]1(C)CCN2C (relative stereo) [Formula G, α-2'-amino-2,5,9-trimethyl-6,7-benzomorphan, reference compound]
- ED50 [1, 8]: 7.5 mg/kg
- Tail-flick Agonist ED50 [5]: Inactive at 120
- Narcotic antagonist activity ([4]; rat, in vivo): not a narcotic antagonist
- Tail-flick Antagonist AD50 ([4]; rats, subcutaneous, against phenazocine): Inactive at 80

Compound: C[C@H]1[C@H]2Cc3ccc(O)cc3[C@]1(C)CCN2CC1CC1 (relative stereo) [cyclazocine, reference compound]
- ED50 [1, 7]: 5.3 mg/kg
- ED50 [1, 8]: 0.15 mg/kg
- Oral:Parenteral Potency Ratio [1]: 35
- Tail-flick Agonist ED50 [5]: Inactive at 120
- Heart rate and blood pressure [2]: increases in heart rate and blood pressure
- Unconsciousness [2]: produced unconsciousness
- ED50 [4]: 0.028 mg/kg

Compound: CC(C)=CCN1CCC2(C)c3cc(O)ccc3CC1C2C (stereo not drawn) [pentazocine, reference compound]
- ED50 [1, 7]: 51 mg/kg
- ED50 [1, 8]: 2.2 mg/kg
- Oral:Parenteral Potency Ratio [1]: 23
- Tail-flick Agonist ED50 [5]: Inactive at 120
- Unconsciousness [2]: without unconsciousness
- Convulsions ([2]; single dose tested): induced convulsions
- Threshold irritation concentration [3]: 0.5%
- Potency relative to the compound of Example 1B in the tests for analgesia [6]: significantly less potent
- ED50 [4]: 6.3 mg/kg
